From paper PMC2826131 (Journal of the American Chemical Society, 2010)

Columns and labels:
rat nNOS = rat nNOS (Rattus norvegicus, UniProt P29476); assay: NOS hemoglobin capture assay, Ki from IC50; type: biochemical; conditions: 10 μM L-arginine, calculated from IC50, mean ± SD of 2-3 experiments
ferrous nNOS heme domain = ferrous nNOS heme domain (Rattus norvegicus, UniProt P29476); assay: Ferrous difference spectrometry; type: binding; conditions: type of difference spectrum toward ferrous (dithionite-reduced) nNOS heme domain
Sequence of ferrous nNOS heme domain (P29476 297-718 limits assumed): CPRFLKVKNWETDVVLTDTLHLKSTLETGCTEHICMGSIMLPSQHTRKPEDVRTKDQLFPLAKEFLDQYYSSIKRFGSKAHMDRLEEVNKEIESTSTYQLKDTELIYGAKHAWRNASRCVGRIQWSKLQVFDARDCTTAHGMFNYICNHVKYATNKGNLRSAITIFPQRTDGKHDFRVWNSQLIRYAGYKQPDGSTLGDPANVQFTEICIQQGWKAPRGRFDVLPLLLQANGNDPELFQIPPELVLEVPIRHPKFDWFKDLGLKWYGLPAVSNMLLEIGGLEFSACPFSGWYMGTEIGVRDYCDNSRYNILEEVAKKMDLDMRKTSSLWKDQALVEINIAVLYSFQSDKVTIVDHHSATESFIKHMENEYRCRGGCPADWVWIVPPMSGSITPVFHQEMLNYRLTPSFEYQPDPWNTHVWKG

ferric nNOS heme domain = ferric nNOS heme domain (Rattus norvegicus, UniProt P29476); assay: Ferric difference spectrometry; type: binding; conditions: type of difference spectrum toward ferric nNOS heme domain
Sequence of ferric nNOS heme domain (P29476 297-718 limits assumed): as above

Sequence of rat nNOS (P29476 whole entry, the tested form may be a part): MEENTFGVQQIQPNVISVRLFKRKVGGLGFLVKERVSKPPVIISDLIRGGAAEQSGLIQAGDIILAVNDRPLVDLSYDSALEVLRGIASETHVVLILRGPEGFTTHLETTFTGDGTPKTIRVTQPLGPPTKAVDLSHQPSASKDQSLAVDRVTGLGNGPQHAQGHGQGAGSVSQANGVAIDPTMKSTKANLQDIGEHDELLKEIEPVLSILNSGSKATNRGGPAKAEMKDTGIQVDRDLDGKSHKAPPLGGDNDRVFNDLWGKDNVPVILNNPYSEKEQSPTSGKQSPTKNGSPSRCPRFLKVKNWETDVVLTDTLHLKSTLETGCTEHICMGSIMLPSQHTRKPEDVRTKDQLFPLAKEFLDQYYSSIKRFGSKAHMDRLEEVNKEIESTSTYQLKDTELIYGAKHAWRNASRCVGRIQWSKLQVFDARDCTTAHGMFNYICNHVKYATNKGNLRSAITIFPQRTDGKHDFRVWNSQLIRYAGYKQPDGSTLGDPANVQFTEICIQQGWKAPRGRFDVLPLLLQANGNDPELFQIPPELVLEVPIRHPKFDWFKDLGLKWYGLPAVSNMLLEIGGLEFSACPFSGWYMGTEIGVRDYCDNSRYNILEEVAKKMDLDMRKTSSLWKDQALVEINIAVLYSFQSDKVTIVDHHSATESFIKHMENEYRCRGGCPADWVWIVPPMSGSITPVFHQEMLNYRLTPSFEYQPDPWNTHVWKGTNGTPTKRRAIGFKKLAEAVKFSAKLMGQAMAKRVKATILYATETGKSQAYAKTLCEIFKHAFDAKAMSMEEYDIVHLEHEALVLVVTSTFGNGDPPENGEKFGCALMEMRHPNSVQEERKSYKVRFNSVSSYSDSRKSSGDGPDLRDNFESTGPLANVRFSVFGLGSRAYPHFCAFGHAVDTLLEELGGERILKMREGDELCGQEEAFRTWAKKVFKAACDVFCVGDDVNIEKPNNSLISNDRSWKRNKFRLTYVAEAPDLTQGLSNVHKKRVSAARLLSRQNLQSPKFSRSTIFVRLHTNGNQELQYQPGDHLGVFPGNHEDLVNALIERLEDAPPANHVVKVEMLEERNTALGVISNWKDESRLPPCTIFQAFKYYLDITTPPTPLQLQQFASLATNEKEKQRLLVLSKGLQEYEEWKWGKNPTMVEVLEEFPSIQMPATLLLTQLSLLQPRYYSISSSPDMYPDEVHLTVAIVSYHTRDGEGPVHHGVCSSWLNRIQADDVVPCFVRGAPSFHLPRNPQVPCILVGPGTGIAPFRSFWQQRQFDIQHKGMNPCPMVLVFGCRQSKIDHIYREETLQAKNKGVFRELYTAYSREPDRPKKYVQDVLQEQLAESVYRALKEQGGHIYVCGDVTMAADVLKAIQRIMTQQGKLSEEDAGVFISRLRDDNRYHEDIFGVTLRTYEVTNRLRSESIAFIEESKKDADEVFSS

SMILES | Ki (rat nNOS) [µM] | Fe^2+ type (ferrous nNOS heme domain) | Fe^3+ type (ferric nNOS heme domain)
c1c[nH]cn1 [Imidazole] | 29.7 ± 0.8 | I | –
NC(=NCCC[C@H](N)C(=O)O)N[N+](=O)[O-] [L-Nitroarginine] | – | I | I
